The structures appear in SMILES notation.

T1 sequence (Q9H3N8 whole entry): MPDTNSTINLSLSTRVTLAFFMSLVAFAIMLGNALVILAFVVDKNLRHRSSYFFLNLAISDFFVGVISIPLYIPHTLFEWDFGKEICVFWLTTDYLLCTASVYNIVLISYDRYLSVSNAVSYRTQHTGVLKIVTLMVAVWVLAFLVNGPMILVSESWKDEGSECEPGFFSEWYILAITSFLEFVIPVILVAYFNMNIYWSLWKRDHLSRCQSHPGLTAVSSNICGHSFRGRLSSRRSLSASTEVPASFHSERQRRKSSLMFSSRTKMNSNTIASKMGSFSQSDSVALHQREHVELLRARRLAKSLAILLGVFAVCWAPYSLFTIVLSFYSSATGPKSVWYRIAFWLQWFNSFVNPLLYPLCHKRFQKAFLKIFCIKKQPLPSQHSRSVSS

This test addresses T1, human H4 receptor (Homo sapiens, UniProt Q9H3N8).
T1 construct: expressed in transfected cells
Description: [3H]Histamine binding on membranes of CHO cells stably expressing human H4 receptor. The method, then: CHO cells stably expressing human H4 receptor were grown until sub-confluence and centrifuged at 300 g 15 minutes at 4° C. Pellets were resuspended in buffer I Tris-HCl 50 mM, MgCl2 10 mM, NaCl 140 mM, pH=7.4 supplemented by a 1/50 dilution of a mix of protease inhibitors. The obtained suspension is stirred gently and submitted to a […] exerted through a syringe. The cell lysate is then centrifuged at 300 g 15 minutes at 4° C. in order to eliminate nucleus and cell scraps. The obtained supernatant was then centrifuged at 48000 g for 30 minutes at 4° C. The final pellet is resuspended in buffer I with a potter homogenizer. Aliquots were frozen in liquid nitrogen and stored until use at −80° C. Protein content is measured by the Bradford method.
Defreezed membranes were diluted at a final concentration of 20 μg/180 μL/well in a binding buffer containing 50 mM Tris/HCl, 0.5 mM EDTA, pH=7.4 and distributed in 96 well polystyrene microplate. [^3H] […] Non specific binding was estimated in the presence of 10 μM BP1.2404 (JNJ 7777120). The reaction was terminated by filtration through GF/B filters pre-soaked 2 hours at 4° C. in […]. Filters were rinsed 3 times with 250 μl of ice cold incubation binding buffer.
The filter-bound radioactivity was measured in a liquid scintillation counter Microbeta TRILUX® with 50 μl of scintillation fluid.
The hH4 binding investigated by use of [^3H]
Turning to `CCCCOc1cccc(C(NC2CCN(C)CC2)c2nc3ccccc3s2)c1` (stereo not shown) [Example 91, [benzothiazol-2-yl(3-butoxyphenyl)methyl](1-methylpiperidin-4-yl)amine], the Ki or IC50 activity class is less than 30 nM.
In turn, `CCCCOc1cccc(C(OC2CCN(C)CC2)c2nc3ccccc3s2)c1` (stereo not shown) [Example 92, 2-[(3-butoxyphenyl)(1-methylpiperidin-4-yloxy)methyl]benzothiazole] returned a Ki or IC50 activity class of less than 300 nM.
In the case of `CN1CCC(NC(c2cccc(OCC3CCCCC3)c2)c2nc3ccccc3s2)CC1` (stereo not shown) [Example 93, [benzothiazol-2-yl(3-cyclohexylmethoxyphenyl)methyl](1-methylpiperidin-4-yl)amine] it was less than 300 nM.
In the case of `CCCCCOc1cccc(C(NC2CCN(C)CC2)c2nc3ccccc3[nH]2)c1` (stereo not shown) [Example 95, [(1H-benzimidazol-2-yl)(3-pentyloxyphenyl)methyl](1-methylpiperidin-4-yl)amine] it was less than 30 nM.
The compound `COc1ccccc1-c1cccc(C(OC2CCN(C)CC2)c2nc3ccccc3s2)c1` (stereo not shown) [Example 96, 2-[(2′-methoxybiphenyl-3-yl)(1-methylpiperidin-4-yloxy)methyl]benzothiazole] yielded a Ki or IC50 activity class of less than 300 nM.
In the case of `CN1CCC(OC(c2cccc(-c3cccc([N+](=O)[O-])c3)c2)c2nc3ccccc3s2)CC1` (stereo not shown) [Example 97, 2-[(1-methylpiperidin-4-yloxy)(3′-nitrobiphenyl-3-yl)methyl]benzothiazole] it was less than 300 nM; in that of `CN1CCC(OC(c2cccc(-c3cccc(CC#N)c3)c2)c2nc3ccccc3s2)CC1` (stereo not shown) [Example 98, {3′-[benzothiazol-2-yl(1-methylpiperidin-4-yloxy)methyl]biphenyl-3-yl}acetonitrile], less than 300 nM.
In the case of `COc1cccc(-c2cccc(C(OC3CCN(C)CC3)c3nc4ccccc4s3)c2)c1` (stereo not shown) [Example 99, 2-[(3′-methoxybiphenyl-3-yl)(1-methylpiperidin-4-yloxy)methyl]benzothiazole] it was less than 300 nM; in that of `COc1ccc(-c2cccc(C(OC3CCN(C)CC3)c3nc4ccccc4s3)c2)cc1` (stereo not shown) [Example 100, 2-[(4′-methoxybiphenyl-3-yl)(1-methylpiperidin-4-yloxy)methyl]benzothiazole], less than 300 nM.
In the case of `CN1CCC(NC(c2cccc(OCc3ccccc3)c2)c2nc3ccccc3s2)CC1` (stereo not shown) [Example 101, [benzothiazol-2-yl(3-benzyloxyphenyl)methyl](1-methylpiperidin-4-yl)amine] it was less than 30 nM; in that of `CN1CCC(NC(c2cccc(-c3ccccc3)c2)c2nc3ccccc3s2)CC1` (stereo not shown) [Example 102, (benzothiazol-2-ylbiphenyl-3-ylmethyl)(1-methylpiperidin-4-yl)amine], less than 30 nM; in that of `CN1CCC(NC(c2cccc(OCc3ccc(F)cc3)c2)c2nc3ccccc3[nH]2)CC1` (stereo not shown) [Example 103, {(1H-benzimidazol-2-yl)[3-(4-fluorobenzyloxy)phenyl]methyl}(1-methylpiperidin-4-yl)amine], less than 300 nM.
`CN1CCC(NC(c2cccc(SCc3ccccc3)c2)c2nc3ccccc3[nH]2)CC1` (stereo not shown) [Example 104, [(1H-benzimidazol-2-yl)(3-benzylsulfanylphenyl)methyl](1-methylpiperidin-4-yl)amine] displayed a Ki or IC50 activity class of less than 30 nM.
In the case of `CN1CCC(NC(c2cccc(OCc3cccc(F)c3)c2)c2nc3ccccc3[nH]2)CC1` (stereo not shown) [Example 105, {(1H-benzimidazol-2-yl)[3-(3-fluorobenzyloxy)phenyl]methyl}(1-methylpiperidin-4-yl)amine] it was less than 30 nM.
Compound `CN1CCC(NC(c2cccc(OCCOc3ccccc3)c2)c2nc3ccccc3[nH]2)CC1` (stereo not shown) [Example 106, {(1H-benzimidazol-2-yl)[3-(2-phenoxyethoxy)phenyl]methyl}(1-methylpiperidin-4-yl)amine] gave a Ki or IC50 activity class of less than 300 nM.
In the case of `CN1CCC(NC(c2cccc(SCc3ccccc3)c2)c2nc3ccccc3s2)CC1` (stereo not shown) [Example 107, [benzothiazol-2-yl(3-benzylsulfanylphenyl)methyl](1-methylpiperidin-4-yl)amine] it was less than 30 nM.
On to `CC(=O)c1ccc(-c2cccc(C(OC3CCN(C)CC3)c3nc4ccccc4[nH]3)c2)cc1` (stereo not shown) [Example 108, 1-{3′-[(1H-benzimidazol-2-yl)(1-methylpiperidin-4-yloxy)methyl]biphenyl-4-yl}ethanone], for which the Ki or IC50 activity class is less than 300 nM.
In the case of `CN1CCC(OC(c2cccc(-c3cccc(F)c3)c2)c2nc3ccccc3[nH]2)CC1` (stereo not shown) [Example 109, 2-[(3′-fluoro-biphenyl-3-yl)(1-methylpiperidin-4-yloxy)methyl]-1H-benzimidazole] it was less than 300 nM; in that of `CC(=O)c1cccc(-c2cccc(C(OC3CCN(C)CC3)c3nc4ccccc4[nH]3)c2)c1` (stereo not shown) [Example 110, 1-{3′-[(1H-benzimidazol-2-yl)(1-methylpiperidin-4-yloxy)methyl]biphenyl-3-yl}ethanone], less than 300 nM; in that of `CSc1cccc(C(NC2CCN(C)CC2)c2nc3ccccc3s2)c1` (stereo not shown) [Example 111, [benzothiazol-2-yl(3-methylsulfanylphenyl)methyl](1-methylpiperidin-4-yl)amine], less than 30 nM.
In the case of `C=CCOc1cccc(C(NC2CCN(C)CC2)c2nc3ccccc3[nH]2)c1` (stereo not shown) [Example 112, [(3-allyloxyphenyl)(1H-benzimidazol-2-yl)methyl](1-methylpiperidin-4-yl)amine] it was less than 1000 nM.
In the case of `CN1CCC(NC(c2cccc(OCc3ccccc3F)c2)c2nc3ccccc3[nH]2)CC1` (stereo not shown) [Example 113, {(1H-benzimidazol-2-yl)[3-(2-fluorobenzyloxy)phenyl]methyl}(1-methylpiperidin-4-yl)amine] it was less than 30 nM.
As for `CN1CCC(OC(c2cccc(-c3ccc(F)cc3)c2)c2nc3ccccc3[nH]2)CC1` (stereo not shown) [Example 115, 2-[(4′-fluorobiphenyl-3-yl)(1-methylpiperidin-4-yloxy)methyl]-1H-benzimidazole], the Ki or IC50 activity class was less than 300 nM.
In the case of `CSc1cccc(-c2cccc(C(OC3CCN(C)CC3)c3nc4ccccc4[nH]3)c2)c1` (stereo not shown) [Example 116, 2-[(1-methylpiperidin-4-yloxy)(3′-methylsulfanylbiphenyl-3-yl)methyl]-1H-benzimidazole] it was less than 300 nM.
In the case of `CN1CCC(OC(c2cccc(-c3ccccc3Cl)c2)c2nc3ccccc3[nH]2)CC1` (stereo not shown) [Example 121, 2-[(2′-Chlorobiphenyl-3-yl)(1-methylpiperidin-4-yloxy)methyl]-1H-benzimidazole] it was less than 300 nM; in that of `CN1CCC(OC(c2cccc(-c3ccc(Cl)c(Cl)c3)c2)c2nc3ccccc3[nH]2)CC1` (stereo not shown) [Example 122, 2-[(3′,4′-dichlorobiphenyl-3-yl)(1-methylpiperidin-4-yloxy)methyl]-1H-benzimidazole], less than 300 nM.
Compound `COc1cccc(COc2cccc(C(NC3CCN(C)CC3)c3nc4ccccc4[nH]3)c2)c1` (stereo not shown) [Example 125, {(1H-benzimidazol-2-yl)[3-(3-methoxybenzyloxy)phenyl]methyl}(1-methylpiperidin-4-yl)amine] came in with a Ki or IC50 activity class of less than 30 nM.
In the case of `CN1CCC(OC(c2cccc(-c3ccccc3CO)c2)c2nc3ccccc3s2)CC1` (stereo not shown) [Example 127, {3′-[benzothiazol-2-yl(1-methylpiperidin-4-yloxy)methyl]biphenyl-2-yl}methanol] it was less than 300 nM; in that of `CSc1cccc(-c2cccc(C(OC3CCN(C)CC3)c3nc4ccccc4s3)c2)c1` (stereo not shown) [Example 128, 2-[(1-methylpiperidin-4-yloxy)(3′-methylsulfanylbiphenyl-3-yl)methyl]benzothiazole], less than 300 nM.
In the case of `Cc1ccccc1COc1cccc(C(NC2CCN(C)CC2)c2nc3ccccc3[nH]2)c1` (stereo not shown) [Example 129, {(1H-benzimidazol-2-yl)[3-(2-methylbenzyloxy)phenyl]methyl}(1-methylpiperidin-4-yl)amine] it was less than 30 nM; in that of `CN1CCC(OC(c2cccc(-c3ccc(Cl)c(Cl)c3)c2)c2nc3ccccc3s2)CC1` (stereo not shown) [Example 133, 2-[(3′,4′-dichlorobiphenyl-3-yl)(1-methylpiperidin-4-yloxy)methyl]benzothiazole], less than 300 nM.
In the case of `CCOCCOc1cccc(C(NC2CCN(C)CC2)c2nc3ccccc3[nH]2)c1` (stereo not shown) [Example 134, {(1H-benzimidazol-2-yl)[3-(2-ethoxyethoxy)phenyl]methyl}(1-methylpiperidin-4-yl)amine] it was less than 300 nM; in that of `C=CCCCOc1cccc(C(NC2CCN(C)CC2)c2nc3ccccc3[nH]2)c1` (stereo not shown) [Example 135, [(1H-benzimidazol-2-yl)(3-pent-4-enyloxyphenyl)methyl](1-methylpiperidin-4-yl)amine], less than 300 nM.
The compound `CN1CCC(OC(c2cccc(-c3ccc(F)cc3)c2)c2nc3ccccc3s2)CC1` (stereo not shown) [Example 136, 2-[(4′-fluorobiphenyl-3-yl)(1-methylpiperidin-4-yloxy)methyl]benzothiazole] registered a Ki or IC50 activity class of less than 300 nM.

For the origin of these results see patent US8802664B2 (Bioproject, priority 2010, dated 2014).
